Measurements reported in patent US20250074911A1, “MACROCYCLIC BTK INHIBITORS” (Crossfire Oncology Holding B.V., priority 2021, published 2025).
“And” between values parts separate entries of the source, which are not always exact repeats. Identical values can stand only once.

Tests used:
BTK T316A = BTK T316A (Homo sapiens (Human), UniProt Q06187, T316A); assay: Binding kinetics measurements (Surface Plasmon Resonance) on BTK T316A; conditions: for Tau (h) BTK T316A (Act): target residence time, SPR
Description: (§1) Binding kinetics measurements on wt-BTK, BTK […], BTK […], BTK […] and BTK […] (Surface Plasmon Resonance) Streptavidin-coated chips (Cat. No. BR100531), disposables and maintenance kits for Biacore were purchased from Cytiva (Eindhoven, The Netherlands). […] Remaining streptavidin was blocked with biocytin. Immobilization was performed at 4° C. Subsequent assay steps were conducted at 22° C. After changing buffer to Biacore buffer with 1% (v/v) dimethylsulfoxide (DMSO), a pre-run was performed for a period of at least 30 min at a flow rate of 30 μl/min to obtain a stable surface. The kinetic constants of the compounds were determined with single cycle kinetics with five consecutive injections with an increasing compound concentration with ranges of 3.16-316 nM. […] To circumvent problems of mass transport limitation, a flow rate of 30 μl/min was used. A blank run with the same conditions was performed before the compound was injected. The SPR sensorgrams were analyzed with Biacore Evaluation Software by using a method of double referencing. First the reference channel was subtracted from the channel containing immobilized protein. Subsequently, the reference curve obtained with buffer injections was subtracted. […] Compounds that bound according to an induced fit model were fitted with a two-state reaction model. The kinetic constants (ka, […], KD) of duplicates were geometrically averaged. […] Target residence for an induced fit model was calculated as described (Tummino and Copeland, 2008).

[1] = system: wt-TMD8 diffuse large B-cell lymphoma cells; assay: Cell proliferation assay wt-TMD8 (ATPlite, 120 hours); type: cell-based; conditions: B-cell; wt-TMD8 cells, 120 hours, ATPlite; read-out: IC50 wt-TMD8
How it was run: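 wt-TMD8 DLBCL cells, 1600 per well in RPMI-1640 with 10% FBS, rested ≥5 h then exposed to compound for 120 h at 37° C, 5% CO2. Viability read by ATPlite luminescence; percentage growth calculated relative to start-of-incubation signal and untreated 0.3% DMSO maximum growth.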

[2] = molecular target: full-length wt-BTK enzyme (Homo sapiens (Human), UniProt Q06187); assay: Biochemical kinase assay wt-BTK (IMAP)
How it was run: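 IMAP fluorescence polarization assay: 1.2 nM enzyme pre-incubated 1 h with compound at room temperature, then 50 nM fluorescein-labeled MBP-derived peptide and 4 μM ATP added. Reaction ran 2 h at room temperature in the dark before quenching with IMAP binding solution.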

REC-1 T474I cell lines = assay: Cell proliferation assay REC-1 BTK T474I knock-in cells (ATPlite, 72 hours); type: cell-based; conditions: Homo sapiens, Rec1; 72 hours; read-out: IC50 REC-1 T474I
How it was run: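 REC-1 cells carrying CRISPR knock-in mutant BTK, single-cell cloned and sequence-confirmed, were exposed to compound for 72 h and read by ATPlite luminescence. Percentage growth was calculated against the signal at the start of incubation and against untreated 0.3% DMSO wells as maximum growth.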

BTK T474I = BTK T474I (Homo sapiens (Human), UniProt Q06187, T474I); assay: Binding kinetics measurements (Surface Plasmon Resonance) on BTK T474I; conditions: for Kd: binding affinity by Surface Plasmon Resonance (SPR); for Tau (h) BTK T474I (Act): target residence time, SPR
Description: as §1

[3] = system: wt-REC-1 mantle cell lymphoma cells; assay: Cell proliferation assay wt-REC-1 (ATPlite, 72 hours); type: cell-based; conditions: 72 h; read-out: IC50 wt-REC-1
How it was run: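 Luminescent viability read over 72 h, start-of-incubation signal recorded separately to separate growth from cell death. Percentage growth referenced to compound-free 0.3% DMSO wells; IC50 from 4-parameter logistic fit.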

wt-BTK = wt-BTK (Homo sapiens (Human), UniProt Q06187); assay: Binding kinetics measurements (Surface Plasmon Resonance) on wt-BTK; conditions: for Kd: binding affinity by Surface Plasmon Resonance (SPR); for Tau (h) wt-BTK (Act): target residence time, SPR
Description: as §1

[4] = molecular target: full-length BTK C481S enzyme (Homo sapiens (Human), UniProt Q06187, C481S); assay: Biochemical kinase assay BTK C481S (IMAP)
How it was run: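 Full-length BTK C481S (1.2 nM) was pre-incubated with compound for 1 h at room temperature in the dark, then reacted with fluorescein-labelled MBP-derived peptide (50 nM) and ATP (7 μM) for 2 h. Reactions were quenched with IMAP binding solution, and IC50 values were derived from fluorescence polarization.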

BTK C481S = BTK C481S (Homo sapiens (Human), UniProt Q06187, C481S); assay: Binding kinetics measurements (Surface Plasmon Resonance) on BTK C481S; conditions: for Kd: binding affinity by Surface Plasmon Resonance (SPR); for Tau (h) BTK C418S (Act): target residence time for BTK C481S, SPR
Description: as §1

BTK T474S = BTK T474S (Homo sapiens (Human), UniProt Q06187, T474S); assay: Binding kinetics measurements (Surface Plasmon Resonance) on BTK T474S; conditions: for residence time: SPR binding kinetics, BTK T474S, read-out: Tau (h) BTK T474S (Act), target residence time (converted); for Kd: binding affinity by Surface Plasmon Resonance (SPR)
Description: as §1

Sequence of full-length BTK C481S enzyme (Q06187 whole entry C481S): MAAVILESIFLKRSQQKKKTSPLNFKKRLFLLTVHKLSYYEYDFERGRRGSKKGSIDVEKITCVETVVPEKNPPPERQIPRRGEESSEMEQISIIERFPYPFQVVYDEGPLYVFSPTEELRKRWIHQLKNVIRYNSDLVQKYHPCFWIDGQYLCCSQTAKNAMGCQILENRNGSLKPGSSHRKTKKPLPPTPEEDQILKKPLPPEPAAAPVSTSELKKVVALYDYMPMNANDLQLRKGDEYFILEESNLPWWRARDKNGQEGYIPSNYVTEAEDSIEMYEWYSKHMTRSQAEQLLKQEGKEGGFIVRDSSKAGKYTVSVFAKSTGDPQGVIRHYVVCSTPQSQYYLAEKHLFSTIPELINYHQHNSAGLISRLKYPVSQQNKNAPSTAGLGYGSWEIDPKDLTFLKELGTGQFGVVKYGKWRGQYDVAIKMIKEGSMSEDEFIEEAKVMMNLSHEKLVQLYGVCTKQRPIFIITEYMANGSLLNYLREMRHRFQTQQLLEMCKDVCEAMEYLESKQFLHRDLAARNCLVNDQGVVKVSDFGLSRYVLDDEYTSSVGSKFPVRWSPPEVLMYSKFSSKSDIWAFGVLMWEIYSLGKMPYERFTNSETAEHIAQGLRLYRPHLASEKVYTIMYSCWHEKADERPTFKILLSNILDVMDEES
Sequence of BTK C481S (Q06187 whole entry C481S): as above
Sequence of wt-BTK (Q06187 whole entry): as the sequence (Q06187 whole entry C481S) above, with S481C counted along it
Sequence of full-length wt-BTK enzyme (Q06187 whole entry): as the sequence (Q06187 whole entry C481S) above, with S481C counted along it
Sequence of BTK T474I (Q06187 whole entry T474I): as the sequence (Q06187 whole entry C481S) above, with T474I, S481C counted along it
Sequence of BTK T474S (Q06187 whole entry T474S): as the sequence (Q06187 whole entry C481S) above, with T474S, S481C counted along it
Sequence of BTK T316A (Q06187 whole entry T316A): as the sequence (Q06187 whole entry C481S) above, with T316A, S481C counted along it

Nc1ncc2c3c1c(-c1ccc(C(=O)Nc4cc(C(F)(F)F)ccn4)cc1)nn3[C@@H]1CCC[C@H](C1)C(=O)NCCCCC/C=C/2 [Example 2]
Kd (BTK T316A; binding affinity by Surface Plasmon Resonance (SPR)): < 5 nM
Tau (h) BTK T316A (Act) (BTK T316A): 16.05 h
IC50 [1]: < 100 nM
IC50 [2]: < 5 nM
IC50 (REC-1 T474I cell lines): < 100 nM
Kd (BTK T474I): < 2 nM
Tau (h) BTK T474I (Act) (BTK T474I): 3.61 h
IC50 [3]: < 100 nM
Kd (wt-BTK): < 5 nM
Tau (h) wt-BTK (Act) (wt-BTK): 4.47 h
IC50 [4]: < 5 nM

N#Cc1ccnc(NC(=O)c2ccc(-c3nn4c5c(cnc(N)c35)/C=C/COCCC(=O)N[C@@H]3CC[C@@H]4C3)cc2)c1 [Example 183]
IC50 [1]: < 100 nM
Kd (BTK C481S): < 5 nM
Tau (h) BTK C418S (Act) (BTK C481S): 4.15 h
residence time (BTK T474S): > 24 h
Kd (BTK T474S): < 5 nM
IC50 [2]: < 5 nM
IC50 (REC-1 T474I cell lines): < 100 nM
Tau (h) BTK T474I (Act) (BTK T474I): >24 h
IC50 [3]: < 100 nM
Tau (h) wt-BTK (Act) (wt-BTK): >24 h
IC50 [4]: < 5 nM

Nc1ncc2n3c(nc(-c4ccc(C(=O)Nc5cc(C(F)(F)F)ccn5)cc4)c13)[C@@H]1CC[C@H](C1)NC(=O)CCOCC/C=C/2 [Example 202]
IC50 [1]: < 100 nM
Tau (h) BTK C418S (Act) (BTK C481S): 3.15 h
IC50 [2]: < 5 nM
IC50 (REC-1 T474I cell lines): < 100 nM
Tau (h) BTK T474I (Act) (BTK T474I): 2.16 h
IC50 [3]: < 100 nM
Tau (h) wt-BTK (Act) (wt-BTK): 2.20 h
IC50 [4]: < 5 nM

N#Cc1ccnc(NC(=O)c2ccc(-c3nn4c5c(cnc(N)c35)/C=C/CCCCCC(=O)N[C@@H]3CC[C@@H]4C3)cc2)c1 [Example 182]
IC50 [1]: < 100 nM
residence time (BTK T474S): 1.03 h
IC50 [2]: < 5 nM
IC50 (REC-1 T474I cell lines): < 100 nM
Tau (h) BTK T474I (Act) (BTK T474I): 1.07 h
IC50 [3]: < 100 nM
Tau (h) wt-BTK (Act) (wt-BTK): 2.96 h
IC50 [4]: < 5 nM

N#Cc1ccnc(NC(=O)c2ccc(-c3nn4c5c(cnc(N)c35)/C=C/CCN3CC[C@H]3C(=O)N[C@@H]3CCC[C@@H]4C3)cc2)c1 [Example 165]
Tau (h) BTK T316A (Act) (BTK T316A): 6.98 h
IC50 [1]: < 100 nM
Tau (h) BTK C418S (Act) (BTK C481S): 1.61 h
IC50 [2]: < 5 nM
IC50 (REC-1 T474I cell lines): < 100 nM
IC50 [3]: < 100 nM
Tau (h) wt-BTK (Act) (wt-BTK): 3.24 h
IC50 [4]: < 5 nM

COc1ccc(F)cc1C(=O)NCc1ccc(-c2nn3c4c(cnc(N)c24)/C=C/CCCCCC(=O)N[C@@H]2CCC[C@@H]3C2)cc1 [Example 187]
IC50 [1]: < 100 nM
residence time (BTK T474S): 13.6 h
Kd (BTK T474S): < 5 nM
IC50 [2]: < 5 nM
IC50 (REC-1 T474I cell lines): 100 to 500 nM
Tau (h) BTK T474I (Act) (BTK T474I): 2.13 h
IC50 [3]: < 100 nM
Tau (h) wt-BTK (Act) (wt-BTK): 18.83 h
IC50 [4]: < 5 nM

C[C@@H]1CC(=O)N[C@@H]2CCC[C@H](C2)c2nc(-c3ccc(C(=O)Nc4cc(C(F)(F)F)ccn4)cc3)c3c(N)ncc(n23)/C=C/CCN1 [Example 179]
IC50 [1]: < 100 nM
Kd (BTK C481S): < 5 nM
Tau (h) BTK C418S (Act) (BTK C481S): 4.06 h
residence time (BTK T474S): 3.01 h
IC50 [2]: < 5 nM
IC50 (REC-1 T474I cell lines): 100 to 500 nM
Kd (BTK T474I): < 2 nM
Tau (h) BTK T474I (Act) (BTK T474I): 1.14 h
IC50 [3]: < 100 nM
Tau (h) wt-BTK (Act) (wt-BTK): 7.36 h
IC50 [4]: < 5 nM

C[C@@H]1CC(=O)N[C@@H]2CCC[C@H](C2)n2nc(-c3ccc(C(=O)Nc4cc(C#N)ccn4)cc3)c3c(N)ncc(c32)/C=C/CCN1 [Example 180]
IC50 [1]: < 100 nM
residence time (BTK T474S): 7.27 h
IC50 [2]: < 5 nM
IC50 (REC-1 T474I cell lines): 100 to 500 nM
Kd (BTK T474I): < 2 nM
Tau (h) BTK T474I (Act) (BTK T474I): 1.16 h
IC50 [3]: < 100 nM
Tau (h) wt-BTK (Act) (wt-BTK): 7.42 h
IC50 [4]: < 5 nM

C[C@@H]1CC(=O)N[C@@H]2CC[C@H](C2)c2nc(-c3ccc(C(=O)Nc4cc(C(F)(F)F)ccn4)cc3)c3c(N)ncc(n23)/C=C/CCN1 [Example 207]
IC50 [1]: < 100 nM
Kd (BTK C481S): < 5 nM
Tau (h) BTK C418S (Act) (BTK C481S): 8.44 h
IC50 [2]: < 5 nM
IC50 (REC-1 T474I cell lines): 500 to 10000 nM
Kd (BTK T474I): < 2 nM
IC50 [3]: < 100 nM
Kd (wt-BTK): < 5 nM
Tau (h) wt-BTK (Act) (wt-BTK): 2.55 h
IC50 [4]: < 5 nM

COc1ccc(F)cc1C(=O)NCc1ccc(-c2nn3c4c(cnc(N)c24)/C=C/COCC(=O)N[C@@H]2CCC[C@@H]3C2)cc1 [Example 52]
IC50 [1]: < 100 nM
residence time (BTK T474S): 1.35 h
Kd (BTK T474S): < 3 nM
IC50 [2]: < 5 nM
IC50 (REC-1 T474I cell lines): 500 to 10000 nM
Kd (BTK T474I): 10 to 50 nM and < 5 nM
IC50 [3]: 100 to 1000 nM
Kd (wt-BTK): < 5 nM
IC50 [4]: < 5 nM

N#Cc1ccnc(NC(=O)c2ccc(-c3nc4n5c(cnc(N)c35)/C=C/COCCC(=O)N[C@@H]3CC[C@@H]4C3)cc2)c1 [Example 199]
IC50 [1]: < 100 nM
Tau (h) BTK C418S (Act) (BTK C481S): 1.28 h
IC50 [2]: < 5 nM
IC50 (REC-1 T474I cell lines): 500 to 10000 nM
Tau (h) BTK T474I (Act) (BTK T474I): 0.54 h
IC50 [3]: < 100 nM
Tau (h) wt-BTK (Act) (wt-BTK): 1.69 h
IC50 [4]: < 5 nM

C[C@@H]1CC(=O)N[C@@H]2CC[C@H](C2)n2nc(-c3ccc(C(=O)Nc4cc(C#N)ccn4)cc3)c3c(N)ncc(c32)/C=C/CCN1 [Example 181]
IC50 [1]: < 100 nM
residence time (BTK T474S): 5.65 h
IC50 [2]: < 5 nM
IC50 (REC-1 T474I cell lines): 500 to 10000 nM
IC50 [3]: < 100 nM
Tau (h) wt-BTK (Act) (wt-BTK): 2.95 h
IC50 [4]: < 5 nM

Nc1ncc2c3c1c(-c1ccc(C(=O)Nc4cc(C(F)(F)F)ccn4)cc1)nn3[C@@H]1CCC[C@H](C1)NC(=O)CCCCCC2 [Example 114]
IC50 [1]: < 100 nM
Kd (BTK C481S): < 5 nM
Tau (h) BTK C418S (Act) (BTK C481S): 1.85 h
IC50 [2]: < 5 nM
IC50 (REC-1 T474I cell lines): 500 to 10000 nM
Kd (BTK T474I): 10 to 50 nM and < 5 nM
IC50 [3]: 100 to 1000 nM
Kd (wt-BTK): < 5 nM
IC50 [4]: < 5 nM
